Reference: publication PMC3542062, “A phenyl-thiadiazolylidene-amine derivative ejects zinc from retroviral nucleocapsid zinc fingers and inactivates HIV virions” (Retrovirology, 2012)

Tests used:
HIV-2 ROD = experiment: GFP-assay in Jurkat A72 (LTR-GFP) cells; type: cell-based; conditions: Human immunodeficiency virus 2, 72 h, 3 days after infection
[1] = tested on: HIV-1 NL4.3 transmission from Raji/DC-SIGN cells to C8166 cells; experiment: Transmission of DC-SIGN-captured virus to C8166 cells in presence of compound (procedure C); type: cell-based; conditions: Human immunodeficiency virus 1; HIV-captured Raji/DC-SIGN cocultivated with C8166 in presence of compound; giant cell formation
ETH2220 subtype C = experiment: Virucidal assay on clinical isolates, titration on PBMCs; type: cell-based, HIV-1; conditions: 125 μM, 1 h 37°C, untreated control 64969
HIV-1 IIIB [2] = experiment: Virucidal assay: virus pre-incubated with compound, diluted, titrated on MT-4 cells; conditions: for CCID50/ml HIV-1 IIIB: no drug 1 × 10^6
NC(11-55) [3] = experiment: Inhibition of NC(11-55)-induced destabilization of cTAR (Rh6G-cTAR-Dabcyl fluorescence); type: biochemical, HIV-1
Protocol: The NCp7-induced destabilization of cTAR can be sensitively monitored by using the doubly labeled Rh6G-5^′-cTAR-3^′-Dabcyl derivative.
(A) Emission spectra of Rh6G-cTAR-Dabcyl (0.1 μM) recorded in the absence (circle) or in the presence of NCp7(11-55) (1 μM) (square). […] Excitation wavelength was 520 nm. […] Excitation wavelength was 520 nm.
An extinction coefficient at 260 nm of 521,910 M^–1 x cm^–1 was used for cTAR. All experiments were performed at 20°C in 25 mM Tris–HCl, pH 7.5, 30 mM NaCl, and 0.2 mM MgCl2[28].
Absorption spectra were recorded on a Cary 400 spectrophotometer. Fluorescence spectra were recorded at 20°C on a Fluorolog spectrofluorometer (Horiba, Jobin-Yvon), equipped with a thermostated cell compartment. Excitation wavelength was 295 nm and 520 nm, for NC(11-55) and Rh6G-5^′-cTAR-3^′-Dabcyl, respectively. The spectra were corrected for dilution and buffer fluorescence. The protein spectra were additionally corrected for screening effects due to the zinc ejecting agent, using:

HIV-1 virus particles = experiment: Virion-associated p24 of pre-treated, compound-cleared virus (ELISA); conditions: compound-cleared HIV-1 virus stock
[4] = MTT-based viability assay in Jurkat cells; conditions: human
AZTR HIV-1 strain = experiment: GFP-assay in Jurkat A72 (LTR-GFP) cells; type: cell-based; conditions: Human immunodeficiency virus 1, Jurkat, 72 h, read-out: EC50 AZTR
NC(11-55) [5] = experiment: Zinc ejection monitored by supramolecular mass spectrometry; type: biochemical, HIV-1; conditions: non-denaturing MS, Vc = 20 V, Pi = 6 mbar
Protocol: Purity and homogeneity of NC(11-55) were verified by mass analysis in denaturing conditions. In these acidic conditions, zinc is released from the peptide; and a molecular weight of 5137. 7 ± 0.4 Da was measured, in agreement with the expected mass of the zinc-free NC form (5137.9 Da). […] This is in contrast to the earlier discovered DIBA zinc ejectors for which the Zn ejection is accompanied by the formation of covalent complexes formed between the compound and Cys residues of Zn-depleted NCp7 [25].
Figure 5 Zinc ejection as monitored by mass spectrometry. […] Under non-denaturing conditions (Vc = 20 V, Psi = 6 mbar), the mass measured for NCp7(11-55) alone is 5264.0 Da corresponding to the NC peptide complexed with two zinc ions.
Before mass spectrometry (MS) analysis, NC(11-55) was dissolved and buffer exchanged with 50 mM ammonium acetate pH 7.0 using 4 cycles of microcentrifuge size exclusion filtering (Vivaspin 500 5kD, Sartorius Stedim biotech, Aubagne, France) and peptide concentration was measured by a Bradford assay. […]
Analyses under non-denaturing conditions were carried out after careful optimization of instrumental settings to avoid dissociation of noncovalent bonds and obtain sensible detection of protein/zinc complexation states. […] Peak intensities were used to estimate the ratios of the different ions detected.

HIV-1 IIIB [6] = experiment: GFP-assay in Jurkat A72 (LTR-GFP) cells; type: cell-based; conditions: Human immunodeficiency virus 1, IIIB, 72 h, 3 days after infection
NL4.3/DS5000R = experiment: GFP-assay in Jurkat A72 (LTR-GFP) cells; type: cell-based, HIV-1; conditions: Human immunodeficiency virus 1, Jurkat, 72 h, read-out: EC50 NL4.3/DS5000R
UG275 subtype A = experiment: Virucidal assay on clinical isolates, titration on PBMCs; type: cell-based, HIV-1; conditions: 125 μM, 1 h 37°C, untreated control 16242
RSV = experiment: Activity against replication of non-retroviruses; type: cell-based
[7] = Cytotoxicity in mock-infected MT-4 cells (MTT); type: cell-based; conditions: human, mock-infected MT-4 cells
[8] = tested on: HIV-1 NL4.3 transmission from Raji/DC-SIGN cells to C8166 cells; experiment: Transmission of DC-SIGN-captured pretreated virus to C8166 cells (procedure B); type: cell-based; conditions: Human immunodeficiency virus 1; Raji/DC-SIGN exposed to compound-pretreated (1 h) HIV, compound removed, cocultured with C8166
[9] = 10 μM compound, 1 μM NC(11-55), 0.1 μM cTAR

Structure (SMILES): Cn1sc(=N)nc1-c1ccccc1 [WDO-217, 2-methyl-3-phenyl-2H-[1,2,4]thiadiazol-5-ylideneamine]
- EC50 (HIV-2 ROD): 1040 ± 300 nM
- IC50 [1]: 8.3 ± 0.4 µM
- CCID50/ml ETH2220 subtype C (ETH2220 subtype C): 2558 CCID50/ml
- CCID50/ml HIV-1 IIIB (HIV-1 IIIB [2]; virus incubated 1 h 37°C with 0.2 μM): 5.4 × 10^6 CCID50/ml
- CCID50/ml HIV-1 IIIB (HIV-1 IIIB [2]; virus incubated 1 h 37°C with 1 μM): 1.6 × 10^6 CCID50/ml
- CCID50/ml HIV-1 IIIB (HIV-1 IIIB [2]; virus incubated 1 h 37°C with 5 μM): 1 × 10^6 CCID50/ml
- CCID50/ml HIV-1 IIIB (HIV-1 IIIB [2]; virus incubated 1 h 37°C with 25 μM): 0 CCID50/ml
- CCID50/ml HIV-1 IIIB (HIV-1 IIIB [2]; virus incubated 1 h 37°C with 625 μM): 0 CCID50/ml
- Infectivity of pre-incubated HIV-1 virus (HIV-1 IIIB [2]; virus incubated at 26, 130 and 650 μM, 1 h 37°C): no longer able to infect cells
- time to 50% inhibition of NC(11-55)-induced cTAR destabilization (NC(11-55) [3]; [9]): less than 5 minutes
- time to complete inhibition of NC(11-55)-induced cTAR destabilization (NC(11-55) [3]; [9]): 50 min
- NC(11-55) ability to destabilize cTAR after preincubation (NC(11-55) [3]; molar ratio 10:1 compound to NC(11-55)): full loss
- virus-associated p24 core protein after treatment (HIV-1 virus particles): did not affect
- CC50 [4]: 75 ± 11 µM
- EC50 (AZTR HIV-1 strain): 1500 ± 600 nM
- covalent complex between NC(11-55) and compound (NC(11-55) [5]): no covalent complex
- EC50 (HIV-1 IIIB [6]): 1040 ± 200 nM
- EC50 (NL4.3/DS5000R): 1200 ± 100 nM
- CCID50/ml UG275 subtype A (UG275 subtype A): 2558 CCID50/ml
- activity against replication of RSV (RSV): inactive
- CC50 at 5 days [7]: ~72 µM
- IC50 [8]: 2200 ± 1000 nM
